Assay results: patent US10577363B2, “Substituted piperidine compounds” (EPIZYME, INC., priority 2014, dated 2020)

How the values were obtained:
SMYD3 [1] = molecular target: T1, SMYD3 (Homo sapiens (Human), UniProt Q9H7B4); experiment: SMYD3 biochemical assay (SPA, 3H-SAM methylation of MEKK2 protein substrate); settings: average of n = 1 to n = 50; read-out: SMYD3 Biochem IC50
Summary of the method: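 SPA methyltransferase format: tag-cleaved human SMYD3, insect-cell GST-MEKK2 protein substrate, 3H-SAM donor, 30 min RT enzyme–compound preincubation, 100 uM cold SAM quench.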

SMYD3 [2] = molecular target: T1, SMYD3; experiment: SMYD3 cell assay (Trimethyl-MEKK2 In-Cell Western in 293T/17 cells); assay type: cell-based; settings: average of n = 1 to n = 50; read-out: SMYD3 Cell IC50
Summary of the method: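 In-Cell Western readout: methanol-fixed cells stained for trimethyl-MEKK2 and flag tag, ratio per well normalized to DMSO and background controls.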

T1 sequence (Q9H7B4 whole entry): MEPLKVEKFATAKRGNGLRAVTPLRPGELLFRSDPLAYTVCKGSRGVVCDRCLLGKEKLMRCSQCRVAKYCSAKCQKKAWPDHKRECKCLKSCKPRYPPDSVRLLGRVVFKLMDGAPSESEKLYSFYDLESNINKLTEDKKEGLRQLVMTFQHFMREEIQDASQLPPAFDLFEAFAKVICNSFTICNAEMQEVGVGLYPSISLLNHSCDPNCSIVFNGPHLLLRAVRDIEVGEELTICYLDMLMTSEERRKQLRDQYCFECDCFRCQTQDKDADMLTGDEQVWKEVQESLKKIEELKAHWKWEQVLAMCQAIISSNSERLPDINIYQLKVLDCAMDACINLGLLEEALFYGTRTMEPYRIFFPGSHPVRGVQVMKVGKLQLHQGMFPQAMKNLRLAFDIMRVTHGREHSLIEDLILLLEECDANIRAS

CN1CCC(CS(=O)(=O)N2CC[C@H](NC(=O)c3cc(C4CC4)on3)C[C@@H]2Cc2ccccc2)CC1 [compound 682, N-((2S,4S)-2-benzyl-1-(((1-methylpiperidin-4-yl)methyl)sulfonyl)piperidin-4-yl)-5-cyclopropylisoxazole-3-carboxamide]
IC50 (SMYD3 [1]): 121 nM | IC50 (SMYD3 [2]): 1250 nM

C[C@@H]1C[C@H](NC(=O)c2cc(C3CC3)on2)CCN1C(=O)c1ccc(N2CCNCC2)nc1 [compound 683, 5-cyclopropyl-N-((2R,4R)-2-methyl-1-(6-(piperazin-1-yl)nicotinoyl)piperidin-4-yl)isoxazole-3-carboxamide]
IC50 (SMYD3 [1]): 122 nM | IC50 (SMYD3 [2]): 1780 nM

CN1CCN(S(=O)(=O)N2[C@@H]3CC[C@H]2C[C@@H](NC(=O)c2cc(C4CC4)on2)C3)CC1CO (stereo partly drawn) [compound 684, 5-cyclopropyl-N-((1R,3r,5S)-8-((3-(hydroxymethyl)-4-methylpiperazin-1-yl)sulfonyl)-8-azabicyclo[3.2.1]octan-3-yl)isoxazole-3-carboxamide]
IC50 (SMYD3 [1]): 122 nM | IC50 (SMYD3 [2]): 923 nM

C[C@@H]1CN(S(=O)(=O)N2CCN(C)CC2)[C@H](C)C[C@@H]1NC(=O)c1cc(C2CC2)on1 [compound 685, 5-cyclopropyl-N-((2R,4S,5R)-2,5-dimethyl-1-((4-methylpiperazin-1-yl)sulfonyl)piperidin-4-yl)isoxazole-3-carboxamide]
IC50 (SMYD3 [1]): 124 nM | IC50 (SMYD3 [2]): 254 nM

C[C@@H]1C[C@H](NC(=O)c2cc(C3CC3)on2)CCN1C(=O)c1ccc(CN(C)C)cc1 [compound 686, 5-cyclopropyl-N-((2R,4R)-1-(4-((dimethylamino)methyl)benzoyl)-2-methylpiperidin-4-yl)isoxazole-3-carboxamide]
IC50 (SMYD3 [1]): 129 nM | IC50 (SMYD3 [2]): 1540 nM

CN(C1CCNCC1)S(=O)(=O)N1[C@@H]2CCC[C@H]1C[C@H](NC(=O)c1cc(C3CC3)on1)C2 [compound 687, 5-cyclopropyl-N-((1R,3s,5S)-9-(N-methyl-N-(piperidin-4-yl)sulfamoyl)-9-azabicyclo[3.3.1]nonan-3-yl)isoxazole-3-carboxamide]
IC50 (SMYD3 [1]): 130 nM | IC50 (SMYD3 [2]): 1710 nM

C[C@@H]1CN(S(=O)(=O)CCN)[C@H](C)C[C@@H]1NC(=O)c1cc(C2CC2)on1 [compound 688, N-((2R,4S,5R)-1-((2-aminoethyl)sulfonyl)-2,5-dimethylpiperidin-4-yl)-5-cyclopropylisoxazole-3-carboxamide]
IC50 (SMYD3 [1]): 131 nM | IC50 (SMYD3 [2]): 783 nM

CC1CCCN1CCS(=O)(=O)N1[C@@H]2CC[C@H]1C[C@@H](NC(=O)c1cc(C3CC3)on1)C2 (stereo partly drawn) [compound 689, 5-cyclopropyl-N-((1R,3r,5S)-8-((2-(2-methylpyrrolidin-1-yl)ethyl)sulfonyl)-8-azabicyclo[3.2.1]octan-3-yl)isoxazole-3-carboxamide]
IC50 (SMYD3 [1]): 131 nM | IC50 (SMYD3 [2]): 764 nM

O=C(N[C@H]1C[C@H]2CC[C@@H](C1)N2S(=O)(=O)CCN1CCC(O)C1)c1cc(C2CC2)on1 (stereo partly drawn) [compound 690, 5-cyclopropyl-N-((1R,3r,5S)-8-((2-(3-hydroxypyrrolidin-1-yl)ethyl)sulfonyl)-8-azabicyclo[3.2.1]octan-3-yl)isoxazole-3-carboxamide]
IC50 (SMYD3 [1]): 138 nM | IC50 (SMYD3 [2]): 553 nM

O=C(N[C@H]1CCN(S(=O)(=O)CC2CCNCC2)[C@H](Cc2ccccc2)C1)c1cc(C2CC2)on1 [compound 691, N-((2R,4S)-2-benzyl-1-((piperidin-4-ylmethyl)sulfonyl)piperidin-4-yl)-5-cyclopropylisoxazole-3-carboxamide]
IC50 (SMYD3 [1]): 144 nM | IC50 (SMYD3 [2]): 1950 nM

CC1CN(S(=O)(=O)N2[C@@H]3CC[C@H]2C[C@@H](NC(=O)c2cc(C4CC4)on2)C3)CC(C)N1 (stereo partly drawn) [compound 692, 5-cyclopropyl-N-((1R,3r,5S)-8-((3,5-dimethylpiperazin-1-yl)sulfonyl)-8-azabicyclo[3.2.1]octan-3-yl)isoxazole-3-carboxamide]
IC50 (SMYD3 [1]): 148 nM | IC50 (SMYD3 [2]): 637 nM

C[C@H]1CN(S(=O)(=O)CC2CCN(CCN3CCCCC3)CC2)CC[C@H]1NC(=O)c1cc(C2CC2)on1 [compound 693, 5-cyclopropyl-N-((3S,4R)-3-methyl-1-(((1-(2-(piperidin-1-yl)ethyl)piperidin-4-yl)methyl)sulfonyl)piperidin-4-yl)isoxazole-3-carboxamide]
IC50 (SMYD3 [1]): 156 nM | IC50 (SMYD3 [2]): 4040 nM

C[C@H]1CN(S(=O)(=O)CCN)[C@@H](C)C[C@H]1NC(=O)c1cc(C2CC2)on1 [compound 694, N-((2S,4R,5S)-1-((2-aminoethyl)sulfonyl)-2,5-dimethylpiperidin-4-yl)-5-cyclopropylisoxazole-3-carboxamide]
IC50 (SMYD3 [1]): 157 nM | IC50 (SMYD3 [2]): 952 nM

C[C@H]1C[C@@H](NC(=O)c2cc(C3CC3)on2)CCN1S(=O)(=O)C(CCN)c1ccccc1 (stereo partly drawn) [compound 695, N-((2S,4S)-1-((3-amino-1-phenylpropyl)sulfonyl)-2-methylpiperidin-4-yl)-5-cyclopropylisoxazole-3-carboxamide]
IC50 (SMYD3 [1]): 169 nM | IC50 (SMYD3 [2]): 1830 nM

C[C@H]1CN(S(=O)(=O)NC2CCN(Cc3ccccc3)CC2)CC[C@H]1NC(=O)c1cc(C2CC2)on1 [compound 696, N-((3S,4R)-1-(N-(1-benzylpiperidin-4-yl)sulfamoyl)-3-methylpiperidin-4-yl)-5-cyclopropylisoxazole-3-carboxamide]
IC50 (SMYD3 [1]): 170 nM | IC50 (SMYD3 [2]): 1550 nM

C[C@H]1C[C@@H](NC(=O)c2cc(C3CC3)on2)CCN1S(=O)(=O)CCCNc1ccccc1 [compound 697, 5-cyclopropyl-N-((2S,4S)-2-methyl-1-((3-(phenylamino)propyl)sulfonyl)piperidin-4-yl)isoxazole-3-carboxamide]
IC50 (SMYD3 [1]): 178 nM | IC50 (SMYD3 [2]): 1560 nM

C[C@H]1CN(S(=O)(=O)CC2CCN(CCC(F)(F)F)CC2)CC[C@H]1NC(=O)c1cc(C2CC2)on1 [compound 698, 5-cyclopropyl-N-((3S,4R)-3-methyl-1-(((1-(3,3,3-trifluoropropyl)piperidin-4-yl)methyl)sulfonyl)piperidin-4-yl)isoxazole-3-carboxamide]
IC50 (SMYD3 [1]): 179 nM | IC50 (SMYD3 [2]): 746 nM

CC1CN(S(=O)(=O)N2CC[C@H](NC(=O)c3cc(C4CC4)on3)C[C@@H]2C)CCN1C (stereo partly drawn) [compound 699, 5-cyclopropyl-N-((2S,4S)-1-((3,4-dimethylpiperazin-1-yl)sulfonyl)-2-methylpiperidin-4-yl)isoxazole-3-carboxamide]
IC50 (SMYD3 [1]): 193 nM | IC50 (SMYD3 [2]): 658 nM

O=C(N[C@H]1CCN(S(=O)(=O)CC2CCCNC2)[C@@H](Cc2ccccc2)C1)c1cc(C2CC2)on1 (stereo partly drawn) [compound 700, N-((2S,4S)-2-benzyl-1-((piperidin-3-ylmethyl)sulfonyl)piperidin-4-yl)-5-cyclopropylisoxazole-3-carboxamide]
IC50 (SMYD3 [1]): 194 nM | IC50 (SMYD3 [2]): 2110 nM

CC1CN(S(=O)(=O)N2CC[C@H](NC(=O)c3cc(C4CC4)on3)C[C@@H]2C)CC(C)N1 (stereo partly drawn) [compound 701, 5-cyclopropyl-N-((2S,4S)-1-((3,5-dimethylpiperazin-1-yl)sulfonyl)-2-methylpiperidin-4-yl)isoxazole-3-carboxamide]
IC50 (SMYD3 [1]): 210 nM | IC50 (SMYD3 [2]): 1840 nM

CC1CN(S(=O)(=O)N2[C@@H]3CC[C@H]2C[C@@H](NC(=O)c2cc(C4CC4)on2)C3)CC(C)N1C (stereo partly drawn) [compound 702, 5-cyclopropyl-N-((1R,3r,5S)-8-((3,4,5-trimethylpiperazin-1-yl)sulfonyl)-8-azabicyclo[3.2.1]octan-3-yl)isoxazole-3-carboxamide]
IC50 (SMYD3 [1]): 215 nM | IC50 (SMYD3 [2]): 1240 nM

CN(CCCS(=O)(=O)N1[C@@H]2CC[C@H]1C[C@@H](NC(=O)c1cc(C3CC3)on1)C2)CCN1CCOCC1 [compound 703, 5-cyclopropyl-N-((1R,3r,5S)-8-((3-(methyl(2-morpholinoethyl)amino)propyl)sulfonyl)-8-azabicyclo[3.2.1]octan-3-yl)isoxazole-3-carboxamide]
IC50 (SMYD3 [1]): 217 nM | IC50 (SMYD3 [2]): 804 nM

O=C(N[C@H]1C[C@H]2CC[C@@H](C1)N2S(=O)(=O)CCNCCc1ccccc1)c1cc(C2CC2)on1 [compound 705, 5-cyclopropyl-N-((1R,3r,5S)-8-((2-(phenethylamino)ethyl)sulfonyl)-8-azabicyclo[3.2.1]octan-3-yl)isoxazole-3-carboxamide]
IC50 (SMYD3 [1]): 225 nM | IC50 (SMYD3 [2]): 1510 nM

C[C@H]1C[C@@H](NC(=O)c2cc(C3CC3)on2)CCN1S(=O)(=O)c1ccncc1 [compound 706, 5-cyclopropyl-N-((2S,4S)-2-methyl-1-(pyridin-4-ylsulfonyl)piperidin-4-yl)isoxazole-3-carboxamide]
IC50 (SMYD3 [1]): 238 nM | IC50 (SMYD3 [2]): 1210 nM

O=C(N[C@H]1CCN(S(=O)(=O)CC2CCN(CCCO)CC2)[C@@H](Cc2ccccc2)C1)c1cc(C2CC2)on1 [compound 707, N-((2S,4S)-2-benzyl-1-(((1-(3-hydroxypropyl)piperidin-4-yl)methyl)sulfonyl)piperidin-4-yl)-5-cyclopropylisoxazole-3-carboxamide]
IC50 (SMYD3 [1]): 247 nM | IC50 (SMYD3 [2]): 2540 nM

C[C@H]1C[C@@H](NC(=O)c2cc(C3CC3)on2)CCN1S(=O)(=O)c1cccc(N)n1 [compound 708, N-((2S,4S)-1-((6-aminopyridin-2-yl)sulfonyl)-2-methylpiperidin-4-yl)-5-cyclopropylisoxazole-3-carboxamide]
IC50 (SMYD3 [1]): 252 nM | IC50 (SMYD3 [2]): 1660 nM

CN1CCC(N(C)S(=O)(=O)N2[C@@H]3CCC[C@@H]2CC(NC(=O)c2cc(C4CC4)on2)C3)CC1 (stereo partly drawn) [compound 709, 5-cyclopropyl-N-((1R,5R)-9-(N-methyl-N-(1-methylpiperidin-4-yl)sulfamoyl)-9-azabicyclo[3.3.1]nonan-3-yl)isoxazole-3-carboxamide]
IC50 (SMYD3 [1]): 258 nM | IC50 (SMYD3 [2]): 1920 nM
